According to ChEMBL document CHEMBL5634153, “Design, synthesis and preclinical evaluation of muscarine receptor antagonists via a scaffold-hopping approach” (Eur J Med Chem, 2023):
Active and inactive are the calls of the source. The calls are words filed in the database; no cut-off is given here.

Legend:
[1] = Lipophilicity, log P of compound at pH 7.4 by HPLC analysis; assay type: physicochemical; conditions: buffer
[2] = Cytotoxicity against CHO-K1 cells expressing human muscarinic receptor M1 incubated for 72 hrs by MTT assay; assay type: toxicity, cell-based; conditions: Chinese hamster (Cricetulus griseus)
[3] = biological target: T1, Muscarinic acetylcholine receptor M1 (Homo sapiens, UniProt P11229); assay: Displacement of [3H]NMS from human muscarinic M1 receptor expressed in CHO-K1 cell membrane assessed as inhibition constant incubated for 90 mins by competitive radioligand binding assay; assay type: cell membranes
T1 sequence (P11229 whole entry): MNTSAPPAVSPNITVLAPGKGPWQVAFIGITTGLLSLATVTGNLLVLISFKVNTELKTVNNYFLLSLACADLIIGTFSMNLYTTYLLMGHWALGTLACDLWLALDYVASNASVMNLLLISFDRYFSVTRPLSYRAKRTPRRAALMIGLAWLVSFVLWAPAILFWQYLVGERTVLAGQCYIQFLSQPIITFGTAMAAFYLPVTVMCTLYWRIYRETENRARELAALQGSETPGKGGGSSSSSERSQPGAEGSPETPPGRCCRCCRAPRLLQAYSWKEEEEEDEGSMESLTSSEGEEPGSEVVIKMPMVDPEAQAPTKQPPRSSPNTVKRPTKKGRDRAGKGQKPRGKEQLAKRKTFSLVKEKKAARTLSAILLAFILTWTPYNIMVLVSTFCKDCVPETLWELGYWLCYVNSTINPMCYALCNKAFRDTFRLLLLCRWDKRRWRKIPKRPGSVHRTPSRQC

[4] = biological target: T2, Muscarinic acetylcholine receptor M2 (Homo sapiens, UniProt P08172); assay: Displacement of [3H]NMS from human muscarinic M2 receptor expressed in CHO-K1 cell membrane assessed as inhibition constant incubated for 90 mins by competitive radioligand binding assay; assay type: cell membranes
T2 sequence (P08172 whole entry): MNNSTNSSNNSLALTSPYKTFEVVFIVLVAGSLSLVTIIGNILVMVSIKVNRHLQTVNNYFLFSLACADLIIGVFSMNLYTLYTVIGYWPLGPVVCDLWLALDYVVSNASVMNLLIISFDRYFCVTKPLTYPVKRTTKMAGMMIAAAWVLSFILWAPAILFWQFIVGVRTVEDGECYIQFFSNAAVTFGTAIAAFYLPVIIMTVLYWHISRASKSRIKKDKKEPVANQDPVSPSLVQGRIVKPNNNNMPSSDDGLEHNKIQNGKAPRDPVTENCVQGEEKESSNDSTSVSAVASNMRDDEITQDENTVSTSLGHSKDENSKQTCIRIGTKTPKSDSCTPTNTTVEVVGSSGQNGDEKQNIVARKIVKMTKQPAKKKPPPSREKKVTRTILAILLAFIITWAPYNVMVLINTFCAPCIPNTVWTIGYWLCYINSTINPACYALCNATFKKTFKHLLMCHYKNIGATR

[5] = biological target: Muscarinic acetylcholine receptor M3 (Homo sapiens, UniProt P20309); assay: Displacement of [3H]NMS from human muscarinic M3 receptor expressed in CHO-K1 cell membrane assessed as inhibition constant incubated for 90 mins by competitive radioligand binding assay; assay type: cell membranes
[6] = biological target: T3, Muscarinic acetylcholine receptor M4 (Homo sapiens, UniProt P08173); assay: Displacement of [3H]NMS from human muscarinic M4 receptor expressed in CHO-K1 cell membrane assessed as inhibition constant incubated for 90 mins by competitive radioligand binding assay; assay type: cell membranes
T3 sequence (P08173 whole entry): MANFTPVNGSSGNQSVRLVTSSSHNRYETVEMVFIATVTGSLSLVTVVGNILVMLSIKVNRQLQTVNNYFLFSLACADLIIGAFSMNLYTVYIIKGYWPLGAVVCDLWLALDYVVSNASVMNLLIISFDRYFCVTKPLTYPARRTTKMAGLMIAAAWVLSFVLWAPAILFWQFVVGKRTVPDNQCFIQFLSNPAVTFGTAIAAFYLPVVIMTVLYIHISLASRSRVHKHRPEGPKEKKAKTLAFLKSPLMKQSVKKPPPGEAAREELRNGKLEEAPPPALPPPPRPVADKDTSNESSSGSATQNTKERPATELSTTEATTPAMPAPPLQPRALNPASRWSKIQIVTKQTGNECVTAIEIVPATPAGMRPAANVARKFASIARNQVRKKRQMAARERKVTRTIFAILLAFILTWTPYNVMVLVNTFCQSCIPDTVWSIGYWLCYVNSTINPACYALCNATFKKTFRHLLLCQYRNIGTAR

[7] = biological target: T4, Muscarinic acetylcholine receptor M5 (Homo sapiens, UniProt P08912); assay: Displacement of [3H]NMS from human muscarinic M5 receptor expressed in CHO-K1 cell membrane assessed as inhibition constant incubated for 90 mins by competitive radioligand binding assay; assay type: cell membranes
T4 sequence (P08912 whole entry): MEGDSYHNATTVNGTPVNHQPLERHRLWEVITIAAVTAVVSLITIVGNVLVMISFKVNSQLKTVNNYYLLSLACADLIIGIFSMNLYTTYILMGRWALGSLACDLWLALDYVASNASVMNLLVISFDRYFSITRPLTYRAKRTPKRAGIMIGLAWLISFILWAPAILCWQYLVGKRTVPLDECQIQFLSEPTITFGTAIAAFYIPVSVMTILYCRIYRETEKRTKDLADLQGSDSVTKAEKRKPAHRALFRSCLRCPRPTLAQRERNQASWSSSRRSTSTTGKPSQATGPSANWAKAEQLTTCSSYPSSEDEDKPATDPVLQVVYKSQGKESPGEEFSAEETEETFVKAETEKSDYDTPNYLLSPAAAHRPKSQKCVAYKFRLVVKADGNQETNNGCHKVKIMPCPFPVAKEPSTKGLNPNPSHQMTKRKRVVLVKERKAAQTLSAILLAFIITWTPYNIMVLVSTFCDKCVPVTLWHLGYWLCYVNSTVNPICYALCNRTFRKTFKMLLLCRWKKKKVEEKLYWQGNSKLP

[8] = biological target: T5, Muscarinic acetylcholine receptor M1 (Homo sapiens) (UniProt P11229); assay: Antagonist activity at human muscarinic M1 receptor expressed in CHO-K1 cell membrane assessed as reduction in carbachol-induced ca2+ influx by fluorescence based assay; assay type: functional, cell membranes; conditions: filed as antagonist
T5 sequence (whole entry): T1 sequence (P11229 whole entry)

[9] = biological target: T5, Muscarinic acetylcholine receptor M1 (Homo sapiens); assay: Agonist activity at human muscarinic M1 receptor expressed in CHO-K1 cell membrane upto 100 uM by fluorescence based assay; assay type: functional, cell membranes
[10] = species on record: Homo sapiens; assay: Selectivity ratio of Ki for human muscarinic M1 receptor expressed in CHO-K1 cells to Ki for human muscarinic M5 receptor expressed in CHO-K1 cells; assay type: cell-based
[11] = species on record: Homo sapiens; assay: Selectivity ratio of Ki for human muscarinic M3 receptor expressed in CHO-K1 cells to Ki for human muscarinic M5 receptor expressed in CHO-K1 cells; assay type: cell-based
[12] = species on record: Homo sapiens; assay: Selectivity ratio of Ki for human muscarinic M4 receptor expressed in CHO-K1 cells to Ki for human muscarinic M5 receptor expressed in CHO-K1 cells; assay type: cell-based
[13] = biological target: Muscarinic acetylcholine receptor M2 and M5 (Homo sapiens) (UniProt P08172+P08912); assay: Selectivity ratio of Ki for human muscarinic M2 receptor expressed in CHO-K1 cells to Ki for human muscarinic M5 receptor expressed in CHO-K1 cells; assay type: cell-based
[14] = biological target: Muscarinic acetylcholine receptor M1 and M3 (Homo sapiens) (UniProt P20309+P11229); assay: Selectivity ratio of Ki for human muscarinic M1 receptor expressed in CHO-K1 cells to Ki for human muscarinic M3 receptor expressed in CHO-K1 cells; assay type: cell-based
[15] = biological target: Muscarinic acetylcholine receptors; M2 & M3 (Homo sapiens) (UniProt P20309+P08172); assay: Selectivity ratio of Ki for human muscarinic M2 receptor expressed in CHO-K1 cells to Ki for human muscarinic M3 receptor expressed in CHO-K1 cells; assay type: cell-based
[16] = species on record: Homo sapiens; assay: Selectivity ratio of Ki for human muscarinic M4 receptor expressed in CHO-K1 cells to Ki for human muscarinic M3 receptor expressed in CHO-K1 cells; assay type: cell-based
[17] = species on record: Homo sapiens; assay: Selectivity ratio of Ki for human muscarinic M5 receptor expressed in CHO-K1 cells to Ki for human muscarinic M3 receptor expressed in CHO-K1 cells; assay type: cell-based

Muscarinic acetylcholine receptor M3, sequence (P20309 whole entry): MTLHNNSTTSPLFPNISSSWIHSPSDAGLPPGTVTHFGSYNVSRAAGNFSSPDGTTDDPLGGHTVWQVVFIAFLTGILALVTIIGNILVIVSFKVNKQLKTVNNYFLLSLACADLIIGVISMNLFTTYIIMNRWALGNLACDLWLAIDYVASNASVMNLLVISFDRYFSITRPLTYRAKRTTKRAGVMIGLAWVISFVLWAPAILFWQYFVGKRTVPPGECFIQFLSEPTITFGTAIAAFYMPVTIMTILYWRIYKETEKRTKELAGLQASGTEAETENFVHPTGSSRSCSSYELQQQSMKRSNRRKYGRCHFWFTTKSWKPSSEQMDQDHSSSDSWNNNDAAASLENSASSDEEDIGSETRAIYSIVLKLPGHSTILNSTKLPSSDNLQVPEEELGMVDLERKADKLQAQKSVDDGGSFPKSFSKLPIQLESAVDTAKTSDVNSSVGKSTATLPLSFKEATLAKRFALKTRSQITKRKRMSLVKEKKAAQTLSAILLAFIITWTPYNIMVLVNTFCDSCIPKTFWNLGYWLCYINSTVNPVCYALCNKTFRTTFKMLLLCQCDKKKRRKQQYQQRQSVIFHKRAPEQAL
Muscarinic acetylcholine receptor M1 and M3 (Homo sapiens), sequence (P20309 whole entry, looked up, one chain of several): as the sequence (P20309 whole entry) above
Muscarinic acetylcholine receptors; M2 & M3 (Homo sapiens), sequence (P20309 whole entry, looked up, one chain of several): as the sequence (P20309 whole entry) above

Row | Compound | logP [1] | Ki [3] [nM] | Ki [4] [nM] | Ki [5] [nM] | Ki [6] [nM] | Ki [7] [nM] | Activity [8] | Activity [9] | IC50 at 72 h [2] [nM] | Ratio Ki [10] | Ratio Ki [11] | Ratio Ki [12] | Ratio Ki [13] | Ratio Ki [14] | Ratio Ki [15] | Ratio Ki [16] | Ratio Ki [17]
1 | CN1[C@@H]2CC[C@H]1C[C@H](OC(=O)N(c1ccccc1)c1ccccc1)C2 | 1.58 | 44 | 222 | 108 | 50 | 75 | Dose-Dependent Effect | inactive | ≥ 100000 |  |  |  |  |  |  |  | 
2 | CN1[C@@H]2C[C@@H](Oc3nc4ccccc4n3-c3ccccc3)C[C@H]1[C@@H]1O[C@@H]12 | 3.04 | 285 | > 1000 | 350 | 189 | 164 |  |  | ≥ 100000 |  |  |  |  |  |  |  | 
3 | CN1[C@@H]2CC[C@H]1C[C@H](Oc1nc3ccccc3n1-c1ccccc1)C2 | 3.05 | 9 | 16 | 17 | 11 | 8.1 | Dose-Dependent Effect | inactive | ≥ 100000 |  |  |  |  |  |  |  | 
4 | CN1[C@@H]2CC[C@H]1C[C@@H](OC(=O)N(c1ccccc1)c1ccccc1)C2 | 2.69 | > 1000 | > 1000 | > 1000 | > 1000 | > 1000 |  |  | ≥ 100000 |  |  |  |  |  |  |  | 
5 | CN1[C@@H]2CC[C@H]1C[C@@H](Oc1nc3ccccc3n1-c1ccccc1)C2 | 2.73 | 101 | 442 | 46 | 201 | > 1000 |  |  | ≥ 100000 |  |  |  |  | 2.5 | 2.5 | 2.5 | 2.5
6 | CN1CCN(Cc2nc3cccnc3n2-c2ccccc2C(=O)O)CC1 |  |  | > 1000 | > 1000 | > 1000 |  |  |  |  |  |  |  |  |  |  |  | 
7 | c1ccc(-n2c(O[C@H]3CN4CCC3CC4)nc3ccccc32)cc1 | 1.2 | 16 | 70 | 3.7 | 9.4 | 2.6 |  |  | ≥ 100000 | 1.4 | 1.4 | 1.4 | 1.4 |  |  |  | 

The next lines start with results.

Row | logP [1] | Ki [3] [nM] | Ki [4] [nM] | Ki [5] [nM] | Ki [6] [nM] | Ki [7] [nM] | Activity [8] | Activity [9] | Compound | IC50 at 72 h [2] [nM] | Ratio Ki [10] | Ratio Ki [11] | Ratio Ki [12] | Ratio Ki [13] | Ratio Ki [14] | Ratio Ki [15] | Ratio Ki [16] | Ratio Ki [17]
8 | 1.91 | 217 | > 1000 | 123 | 156 | 105 | Dose-Dependent Effect | inactive | CN1CCC(OC(=O)N(c2ccccc2)c2ccccc2)C1 (centres undefined) | ≥ 100000 |  |  |  |  |  |  |  | 
9 | 1.82 | > 1000 | > 1000 | 339 | 244 | > 1000 |  |  | CN1CC(OC(=O)N(c2ccccc2)c2ccccc2)C1 | ≥ 100000 |  |  |  |  |  |  |  | 
10 | 2.94 | 20 | 108 | 21 | 32 | 18 | Dose-Dependent Effect | inactive | CN1CCC(Oc2nc3ccccc3n2-c2ccccc2)CC1 | ≥ 100000 |  |  |  |  |  |  |  | 
11 | 2.81 | 51 | 258 | 60 | 65 | 14 | Dose-Dependent Effect | inactive | CN1CCC(Oc2nc3ccccc3n2-c2ccccc2)C1 (racemic) | ≥ 100000 | 4 | 4 | 4 | 18 |  |  |  | 
12 | 2.11 | 255 | > 1000 | 121 | 158 | 255 | Dose-Dependent Effect | inactive | CN1CCC(OC(=O)N(c2ccccc2)c2ccccc2)CC1 | ≥ 100000 |  |  |  |  |  |  |  | 
13 | 3.2 | 288 | 385 | 236 | 152 | 77 |  |  | CN1CCCC(Oc2nc3ccccc3n2-c2ccccc2)C1 (racemic) | ≥ 100000 |  |  |  |  |  |  |  | 
14 | 2.6 | > 1000 | > 1000 | > 1000 | > 1000 | > 1000 |  |  | CN1CC(Oc2nc3ccccc3n2-c2ccccc2)C1 | ≥ 100000 |  |  |  |  |  |  |  | 
15 | 2.69 | > 1000 | > 1000 | > 1000 | > 1000 | > 1000 |  |  | CN1CCCC(OC(=O)N(c2ccccc2)c2ccccc2)C1 (centres undefined) | ≥ 100000 |  |  |  |  |  |  |  | 
16 | 1.58 | > 1000 | > 1000 | > 1000 | > 1000 | > 1000 | Dose-Dependent Effect | inactive | CN1[C@@H]2C[C@@H]3C[C@H]1C(O3)C2OC(=O)N(c1ccccc1)c1ccccc1 (some centres undefined) | ≥ 100000 |  |  |  |  |  |  |  | 
